Assay results as given in patent US9149038B2, “4-amino-6-(heterocyclic)picolinates and 6-amino-2-(heterocyclic)pyrimidine-4-carboxylates and their use as herbicides” (Dow AgroSciences LLC, priority 2013, dated 2015).
Like-named read-outs stand apart in the source and are kept apart here.

Columns and labels:
[1] = test system: Key Broadleaf Weed and Crop Species; experiment: Post-Emergent Test II: postemergent herbicidal activity, visual rating after 14 d (Table 7); assay type: in vivo; conditions: post-emergence, 336 h; for pest or weed control at 35 g/ha: 35 g ai/ha; for pest or weed control at 70 g/ha: 70 g ai/ha; for pest or weed control at 140 g/ha: 140 g ai/ha
Summary of the method: (§1)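 Post-emergence foliar spray, 187 L/ha, first/second true leaf stage plants in potting mix (pH 6.0-6.8). Rates: top rate and 2-fold serial dilutions to 1/16×. Solvent-blank controls. Readout: visual % kill at 14 d.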

[2] = test system: Key Grass and Sedge Weeds as well as Grass Crops; experiment: Post-Emergent Test II: postemergent herbicidal activity, visual rating after 14 d (Table 8); assay type: in vivo; conditions: post-emergence, 336 h; for pest or weed control at 35 g/ha: 35 g ai/ha; for pest or weed control at 70 g/ha: 70 g ai/ha; for pest or weed control at 140 g/ha: 140 g ai/ha
Summary of the method: as §1

[3] = lambsquarters (Chenopodium album), read-out: Visual Growth Reduction (%) 14 Days After Application CHEAL
[4] = oilseed rape, canola (Brassica napus), read-out: Visual Growth Reduction (%) 14 Days After Application BRSNN
[5] = redroot pigweed (Amaranthus retroflexus), read-out: Visual Growth Reduction (%) 14 Days After Application AMARE
[6] = sunflower (Helianthus annuus), read-out: Visual Growth Reduction (%) 14 Days After Application HELAN
[7] = velvetleaf (Abutilon theophrasti), read-out: Visual Growth Reduction (%) 14 Days After Application ABUTH
[8] = wild poinsettia (Euphorbia heterophylla), read-out: Visual Growth Reduction (%) 14 Days After Application EPHHL
[9] = barnyardgrass (Echinochloa crus-galli), read-out: Visual Growth Reduction (%) 14 Days After Application ECHCG
[10] = giant foxtail (Setaria faberi), read-out: Visual Growth Reduction (%) 14 Days After Application SETFA
[11] = maize, corn (Zea mays), read-out: Visual Growth Reduction (%) 14 Days After Application ZEAMX
[12] = rice (Oryza sativa), read-out: Visual Growth Reduction (%) 14 Days After Application ORYSA
[13] = wheat, spring (Triticum aestivum), read-out: Visual Growth Reduction (%) 14 Days After Application TRZAS
[14] = yellow nutsedge (Cyperus esculentus), read-out: Visual Growth Reduction (%) 14 Days After Application CYPES

## COC(=O)c1nc(-c2ccc3c(c2)OC(C)O3)c(F)c(N)c1Cl (stereo not drawn) [Compound 20]
[1]; [3]
  pest or weed control at 35 g/ha: 0 to 29%
  pest or weed control at 70 g/ha: 30 to 44%
  pest or weed control at 140 g/ha: 75 to 84%
[1]; [4]
  pest or weed control at 35 g/ha: 0 to 29%
  pest or weed control at 70 g/ha: 0 to 29%
  pest or weed control at 140 g/ha: 30 to 44%
[1]; [5]
  pest or weed control at 35 g/ha: 60 to 74%
  pest or weed control at 70 g/ha: 95 to 100%
  pest or weed control at 140 g/ha: 95 to 100%
[1]; [6]
  pest or weed control at 35 g/ha: 60 to 74%
  pest or weed control at 70 g/ha: 75 to 84%
  pest or weed control at 140 g/ha: 85 to 94%
[1]; [7]
  pest or weed control at 35 g/ha: 30 to 44%
  pest or weed control at 70 g/ha: 60 to 74%
  pest or weed control at 140 g/ha: 95 to 100%
[1]; [8]
  pest or weed control at 35 g/ha: 45 to 59%
  pest or weed control at 70 g/ha: 85 to 94%
  pest or weed control at 140 g/ha: 85 to 94%
[2]; [9]
  pest or weed control at 35 g/ha: 60 to 74%
  pest or weed control at 70 g/ha: 75 to 84%
  pest or weed control at 140 g/ha: 85 to 94%
[2]; [10]
  pest or weed control at 35 g/ha: 45 to 59%
  pest or weed control at 70 g/ha: 75 to 84%
  pest or weed control at 140 g/ha: 85 to 94%
[2]; [11]
  pest or weed control at 35 g/ha: 30 to 44%
  pest or weed control at 70 g/ha: 45 to 59%
  pest or weed control at 140 g/ha: 60 to 74%
[2]; [12]
  pest or weed control at 35 g/ha: 0 to 29%
  pest or weed control at 70 g/ha: 30 to 44%
  pest or weed control at 140 g/ha: 30 to 44%
[2]; [13]
  pest or weed control at 35 g/ha: 0 to 29%
  pest or weed control at 70 g/ha: 0 to 29%
  pest or weed control at 140 g/ha: 0 to 29%
[2]; [14]
  pest or weed control at 35 g/ha: 45 to 59%
  pest or weed control at 70 g/ha: 75 to 84%
  pest or weed control at 140 g/ha: 85 to 94%

## Nc1c(F)c(-c2cc3c(cc2F)OC(F)(F)O3)nc(C(=O)O)c1Cl [Compound 13]
[1]; [3]
  pest or weed control at 35 g/ha: 60 to 74%
  pest or weed control at 70 g/ha: 85 to 94%
  pest or weed control at 140 g/ha: 85 to 94%
[1]; [4]
  pest or weed control at 35 g/ha: 0 to 29%
  pest or weed control at 70 g/ha: 30 to 44%
  pest or weed control at 140 g/ha: 45 to 59%
[1]; [5]
  pest or weed control at 35 g/ha: 0 to 29%
  pest or weed control at 70 g/ha: 0 to 29%
  pest or weed control at 140 g/ha: 0 to 29%
[1]; [6]
  pest or weed control at 35 g/ha: 85 to 94%
  pest or weed control at 70 g/ha: 85 to 94%
  pest or weed control at 140 g/ha: 85 to 94%
[1]; [7]
  pest or weed control at 35 g/ha: 60 to 74%
  pest or weed control at 70 g/ha: 75 to 84%
  pest or weed control at 140 g/ha: 75 to 84%
[1]; [8]
  pest or weed control at 35 g/ha: 45 to 59%
  pest or weed control at 70 g/ha: 75 to 84%
  pest or weed control at 140 g/ha: 95 to 100%
[2]; [9]
  pest or weed control at 35 g/ha: 75 to 84%
  pest or weed control at 70 g/ha: 95 to 100%
  pest or weed control at 140 g/ha: 85 to 94%
[2]; [10]
  pest or weed control at 35 g/ha: 75 to 84%
  pest or weed control at 70 g/ha: 75 to 84%
  pest or weed control at 140 g/ha: 85 to 94%
[2]; [11]
  pest or weed control at 35 g/ha: 60 to 74%
  pest or weed control at 70 g/ha: 60 to 74%
  pest or weed control at 140 g/ha: 75 to 84%
[2]; [12]
  pest or weed control at 35 g/ha: 0 to 29%
  pest or weed control at 70 g/ha: 0 to 29%
  pest or weed control at 140 g/ha: 0 to 29%
[2]; [13]
  pest or weed control at 35 g/ha: 45 to 59%
  pest or weed control at 70 g/ha: 60 to 74%
  pest or weed control at 140 g/ha: 60 to 74%
[2]; [14]
  pest or weed control at 35 g/ha: 45 to 59%
  pest or weed control at 70 g/ha: 75 to 84%
  pest or weed control at 140 g/ha: 95 to 100%

## COC(=O)c1nc(-c2ccc3c(c2F)OC(F)(F)O3)c(F)c(N)c1Cl [Compound 10]
[1]; [3]
  pest or weed control at 35 g/ha: 85 to 94%
  pest or weed control at 70 g/ha: 85 to 94%
  pest or weed control at 140 g/ha: 95 to 100%
[1]; [4]
  pest or weed control at 35 g/ha: 75 to 84%
  pest or weed control at 70 g/ha: 85 to 94%
  pest or weed control at 140 g/ha: 85 to 94%
[1]; [5]
  pest or weed control at 35 g/ha: 85 to 94%
  pest or weed control at 70 g/ha: 95 to 100%
  pest or weed control at 140 g/ha: 95 to 100%
[1]; [6]
  pest or weed control at 35 g/ha: 85 to 94%
  pest or weed control at 70 g/ha: 85 to 94%
  pest or weed control at 140 g/ha: 85 to 94%
[1]; [7]
  pest or weed control at 35 g/ha: 85 to 94%
  pest or weed control at 70 g/ha: 95 to 100%
  pest or weed control at 140 g/ha: 95 to 100%
[1]; [8]
  pest or weed control at 35 g/ha: 95 to 100%
  pest or weed control at 70 g/ha: 95 to 100%
  pest or weed control at 140 g/ha: 95 to 100%
[2]; [9]
  pest or weed control at 35 g/ha: 95 to 100%
  pest or weed control at 70 g/ha: 95 to 100%
  pest or weed control at 140 g/ha: 95 to 100%
[2]; [10]
  pest or weed control at 35 g/ha: 75 to 84%
  pest or weed control at 70 g/ha: 95 to 100%
  pest or weed control at 140 g/ha: 95 to 100%
[2]; [11]
  pest or weed control at 35 g/ha: 60 to 74%
  pest or weed control at 70 g/ha: 75 to 84%
  pest or weed control at 140 g/ha: 75 to 84%
[2]; [12]
  pest or weed control at 35 g/ha: 0 to 29%
  pest or weed control at 70 g/ha: 0 to 29%
  pest or weed control at 140 g/ha: 0 to 29%
[2]; [13]
  pest or weed control at 35 g/ha: 45 to 59%
  pest or weed control at 70 g/ha: 60 to 74%
  pest or weed control at 140 g/ha: 60 to 74%
[2]; [14]
  pest or weed control at 35 g/ha: 95 to 100%
  pest or weed control at 70 g/ha: 95 to 100%
  pest or weed control at 140 g/ha: 95 to 100%
